Data: BindingDB's records for doi:10.1021/jm960248s (Smithkline Beecham Pharmaceuticals, 1996)

Target: fMet-Leu-Phe receptor (Homo sapiens) (UniProt P21462)
Assay: Inhibitory concentration against fMLP receptor with [3H]- fMLP in receptor binding assay

Sequence of fMet-Leu-Phe receptor (Homo sapiens) (P21462 whole entry, looked up): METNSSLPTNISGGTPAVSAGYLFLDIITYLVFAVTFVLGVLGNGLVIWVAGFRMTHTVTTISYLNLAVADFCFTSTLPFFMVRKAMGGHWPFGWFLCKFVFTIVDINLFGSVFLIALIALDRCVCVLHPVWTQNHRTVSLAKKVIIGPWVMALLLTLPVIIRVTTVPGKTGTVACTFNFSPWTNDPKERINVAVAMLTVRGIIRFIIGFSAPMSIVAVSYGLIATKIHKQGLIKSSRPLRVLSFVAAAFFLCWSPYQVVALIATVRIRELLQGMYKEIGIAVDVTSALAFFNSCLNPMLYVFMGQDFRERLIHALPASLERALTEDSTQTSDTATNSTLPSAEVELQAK

IC50: 3.25 µM
SMILES: O=C(O)/C=C/c1nc(CSc2c(Cl)cccc2Cl)ccc1OCCc1ccccc1 [Ticolubant]
